# Results reported in US20130331331A1, “HEXAPEPTIDE WITH IMPROVED ACTIVITY IN THE REPAIR OF CELLULAR DNA OF DERMAL CELLS” (priority 2011, published 2013).
# Non-standard residues stand in square brackets, D forms with d. Nle = CCCC[C@H](N)C(=O)O
# How the values were obtained:
# Format in all cases: cell-based, human
# melanocytes strain 1513c = test: cAMP levels, radioimmunoassay, strain 1513c; conditions: 45 min, 0.1 mM IBMX
# Procedure: Dose-response experiments were carried out on three melanocytic strains, namely strains 1513c, 1505b and 105c melanocytes were treated with 1 pM-10 nM CUV9900 or NDP-MSH, or with 0.1-10 nM MSH for 45 minutes in the presence of 0.1 mM isobutyl methylxanthine (IBMX). The results obtained from strain 1513c are shown in FIG. 3, the results obtained from strain 1505b are shown in FIG. 5a and the results obtained from strain 105c are shown in FIG. 5b. The strains 1505b and 1513c were obtained from the same human adult while the strain 105c was obtained from another human adult. Cyclic AMP is the second messenger for the melanocortin-1 receptor, and assessment is usually performed indicating cellular activity reflective of melanogenesis. Cyclic AMP levels were determined using ^125I-labeled radioimmunoassay kit (Perkin Elmer, Waltham, Mass.), in human melanocytes that were treated with 0 (control), 0.1-10.0 nM α-MSH, or 0.001-10 nM NDP-MSH or 0.001-10.0 nM CUV 9900 for […]. in the presence of 0.1 mM IBMX, a phosphodiesterase inhibitor to prevent cAMP degradation. Triplicate wells were included in each group, and duplicate samples from each well were assayed for cAMP levels. Each data point is the mean percent of control of 6 determinations/group±S.E.
# melanocyte strain 102b = test: Tyrosinase activity dose-response, strain 102b; conditions: subnanomolar concentrations
# Procedure: Cell numbers as well as tyrosinase activity were then determined. Tyrosinase activity was calculated first at activity/10^6 cells, and then as % of control. […] The conditioned medium from each dish was collected to be assayed for tyrosinase activity, and the cell numbers were determined using a Coulter Counter. Triplicate dishes were included in each group, and duplicate samples from each dish were assayed for tyrosinase activity.
# melanocyte strain 1505b = test: Tyrosinase activity as a measure of stability / residual effect, strain 1505b
# Procedure: To determine the residual effect of CUV9900, as compared to NDP-MSH and α-MSH, on tyrosinase activity, melanocytes were treated with either CUV9900 or NDP-MSH at the concentrations previously described for a total of 3 days. Tyrosinase activity was measured at the end of the 3 days of treatment, and 2 and 4 days after maintenance of the melanocytes in the complete absence of any treatment.
# With continued reference to FIGS. 7, 8 and 9, to determine the stability of CUV9900 versus that of NDP-MSH and α-MSH, melanocytes were treated with 1 nM of each peptide, namely with CUV9900, NDP-MSH and α-MSH, for a total of 6 days, or with 1 nM peptides that were incubated for 5 hours at 37° C. prior to addition to the cultures, every other day, for a total of 6 days. Tyrosinase activity was measured at the end of treatment. In the experiments, cell number represents the mean percent of control of 3 determinations/group±SE, and tyrosinase activity data represent the mean percent of control of 6 determinations±S.E. It should be noted that for the sake of reproducibility the experiment of strain 1513c of FIG. 9 was performed once more 6 months later than the experiment of FIG. 7.
# Melanocytes were treated for 3 days with the designated concentrations of CUV9900, NDP-MSH, or MSH, then maintained in absence of peptides for 4 days. Tyrosinase activity was determined 3 days after treatment.
# Tyrosinase activity as a measure of stability is shown in Tables 4 to 6 below, wherein Table 4 is based on data derived from FIG. 7, Table 5 is based on data derived from FIG. 9, and Table 6 is based on data derived from FIG. 8: […]
# melanocytic strain 1505b = test: UV-induced generation of hydrogen peroxide (luminol), strain 1505b; conditions: 1 nM
# Source text: With reference to FIGS. 10 and 11, melanocytes were irradiated with a bank of FS 20 lamps, with 75% emission in the UVB, and 25% emission in the UVA spectra, with peak emission at 313 nm wavelength. Any emission of UVC rays from the UV source (FS 20 lamps) was blocked by Kodacel filter. Prior to irradiation, the culture medium was replaced by PBS, which was removed after UV exposure, and fresh medium added.
# Melanocytes were irradiated with 105 mJ/cm^2 UV, and treated immediately while in PBS with 0, 1 nM α-MSH or 1 nM CUV9900. Generation of hydrogen peroxide, representative of reactive oxygen species (ROS), was determined by measuring the luminescence of luminol at 0, 30, and 45 min after UV exposure. Triplicate dishes were included in each group, and duplicate samples from each dish were used for measurement of hydrogen peroxide at each time point. Each data point represents the mean of 6 determinations/group±S.E.
# In the melanocytic strain 1505b of FIG. 10 and melanocytic strain 103c of FIG. 11, hydrogen peroxide generation was assessed at 0, 30 and 45 minutes after UV irradiation.
# melanocyte strain 103c = test: UV-induced apoptosis by Annexin V staining, strain 103c; conditions: 1 nM, 4 days prior and 1 day following 105 mJ/cm^2 UV
# Procedure: With reference to FIGS. 12 and 13, melanocytes were maintained for the duration of the experiment in medium lacking bovine pituitary extract (BPE) to determine the survival effect of α-MSH or its analogs in the absence of the anti-apoptotic effect of TPA. Melanocytes were treated with 0, 1 nM α-MSH, 1 μM Forskolin, or 1 nM NDP-MSH or CUV9900 for 4 days prior to, and 24 h after exposure to a dose of 105 mJ/cm^2 UV, then stained for Annexin Va staining. The data are represented as percent increase above control, with triplicate dishes included in each group.
# Comparison of the effect of CUV9900, NDP-MSH and MSH on the UV-induced apoptosis were made in the melanocyte strains 103c and melanocyte strain 1513c of FIGS. 12 and 13, respectively. Both strains were treated with 1 nM CUV9900, NDP and MSH, respectively for 4 days prior and 1 day following irradiation. Floating as well as attached cells were harvested and stained for Annexin V, and analyzed by flow cytometry.
# [1] = system: melanocytic strains 1563c and 102b; test: Ultrastructural visualization of DOPA-stained HM (electron microscopy); conditions: 0.1 nM or 1 nM CUV9900, 1 nM MSH
# Procedure: With reference to FIGS. 14 and 15, two melanocytic strains, a lightly pigmented strain 1563c of FIG. 14 and strain 102b of FIG. 15 were plated in 4-well chamber slides and treated […] with either 0.1 nM or 1 nM CUV9900 or 1 nM MSH for a total of 6 days. Cells were processed for electron microscopy in the presence or absence of histochemical reaction with DOPA. Microtome sections were analyzed in a JEOL JEM-1230 transmission electron microscope and photomicrographs (15,000×) of the perinuclear area and dendrites were taken for each experimental group.
substance,measurement,setting,value
"Ac-Nle-Glu His-D-Phe-Arg-Trp-NH2 (Ac-[Nle]EH[dF]RW-NH2; SMILES CCCC[C@H](NC(C)=O)C(=O)N[C@@H](CCC(=O)O)C(=O)N[C@@H](Cc1c[nH]cn1)C(=O)N[C@H](Cc1ccccc1)C(=O)N[C@@H](CCCNC(=N)N)C(=O)N[C@@H](Cc1c[nH]c2ccccc12)C(N)=O) [CUV9900, hexapeptide alpha-MSH analogue]","cAMP, potency comparison",melanocytes strain 1513c; 0.1 nM,more potent than NDP-MSH
same,"maximal level of cAMP, comparison",melanocytes strain 1513c; 10 nM,higher maximal level of cAMP than MSH
same,"stimulation of tyrosinase activity, comparison",melanocyte strain 102b,greater stimulation of tyrosinase activity than NDP-MSH
same,superior tyrosinase activity in comparison to MSH,melanocyte strain 1505b,18.7%
same,superior tyrosinase activity in comparison to NDP-MSH,melanocyte strain 1505b,32.1%
same,"residual effects on tyrosinase activity 4 days after peptide removal, CUV9900 vs MSH",melanocyte strain 1505b; 0.1 nM CUV9900 vs 1 nM MSH,equal
same,"hydrogen peroxide generation, comparison",melanocytic strain 1505b; 45 minutes after irradiation,lower hydrogen peroxide generation in comparison with both NDP-MSH and MSH
same,UV-induced hydrogen peroxide generation,"melanocytic strain 1505b; strain 1505b, 105 mJ/cm^2 UV, 0, 30 and 45 minutes after irradiation",significant reduction of UV-induced hydrogen peroxide generation
same,"anti-apoptotic effect (Annexin V), comparison",melanocyte strain 103c,equal anti-apoptotic effect than NDP-MSH
same,melanosomes and DOPA reactivity by electron microscopy,[1],increased mature (stage IV) melanosomes in the perinuclear area and more so in dendrites
